Measured values published in patent US6514911B1, “Substituted oxadiazines useful as pesticides” (Uniroyal Chemical Company, Inc., priority 2002, dated 2003).

What was measured:
Assay type in all cases: in vivo
[1] = tested on: tall morningglory (Ipomoea purpurea (L.) Roth) (TM); assay: Preemergence herbicide test, soil drench, tall morningglory; settings: 10 lbs/A (11.2 kg/ha) soil drench, two weeks after treatment, vs untreated checks; for pest or weed control at 11208.5 g/ha: Ipomoea, 336 h, read-out: Percent Weed Control TM
Method: (§1) To illustrate the effectiveness of the previously described substituted oxadiazines of this invention as preemergence herbicides, 300 mg of the chemical was dissolved in a composition comprising 10 mL acetone to which 30 mg of tile emulsifying agent, ethoxylated sorbitan monolaurate, was added. The solution was diluted to 100 mL with distilled water. Ten milliliters of this 3000 ppm solution was diluted to 250 ppm with distilled water. The chemical was applied at the rate of 10 pounds/acre (11.2 kg/ha) by drenchings 46 mL of the 250 ppm solution on the surface of soil in 4½ inch (11.25 cm) plastic pots wherein seeds of the following weeds had been planted: tall morningglory (Ipomoea purpurea (L.) Roth) (TM), The percent control of the weeds compared to untreated checks was determined two weeks after treatment. TABLE 1 summarizes the results achieved with compounds formulated as indicated above, and the data clearly indicate the good to excellent herbicidal efficacy of compositions of this invention.

[2] = tested on: prickly sida (Sida spinosa L.) (PS); assay: Preemergence herbicide test, soil drench, prickly sida; settings: two weeks after treatment
Method: To illustrate the effectiveness of the previously described substituted oxadiazines of this invention as preemergence herbicides, 300 mg of the chemical was dissolved in a composition comprising 10 mL acetone to which 30 mg of tile emulsifying agent, ethoxylated sorbitan monolaurate, was added. The solution was diluted to 100 mL with distilled water. Ten milliliters of this 3000 ppm solution was diluted to 250 ppm with distilled water. […]
prickly sida (Sida spinosa L.) (PS),
(§2) The percent control of the weeds compared to untreated checks was determined two weeks after treatment. TABLE 1 summarizes the results achieved with compounds formulated as indicated above, and the data clearly indicate the good to excellent herbicidal efficacy of compositions of this invention.

[3] = tested on: green foxtail (Setaria virdis (L.) Beauv.) (GF); assay: Preemergence herbicide test, soil drench, green foxtail; settings: two weeks after treatment
Method: as §1, with “41⁄2” for “4½”, “green foxtail (Setaria […].) Beauv.) (GF).” for “tall morningglory (Ipomoea purpurea (L.) Roth) (TM),”

[4] = tested on: velvetleaf (Abutilon theophrasti Medik.) (VL); assay: Preemergence herbicide test, soil drench, velvetleaf; settings: 10 lbs/A (11.2 kg/ha) soil drench, two weeks after treatment, vs untreated checks; for pest or weed control at 11208.5 g/ha: Abutilon theophrasti, 336 h, read-out: Percent Weed Control VL
Method: as §1, with “velvetleaf (Abutilon theophrasti Medik.) (VL),” for “tall morningglory (Ipomoea purpurea (L.) Roth) (TM),”

[5] = tested on: barnyardgrass (Echinochloa crus-galli (L.) Beauv.) (BG); assay: Preemergence herbicide test, soil drench, barnyardgrass; settings: two weeks after treatment
Method: as §1, with “barnyardgrass (Echinochloa crus-galli” for “tall morningglory (Ipomoea purpurea”, “Beauv.) (BG), and” for “Roth) (TM),”

[6] = tested on: switchgrass (Panicum virgahim L.) (SG); assay: Preemergence herbicide test, soil drench, switchgrass; settings: two weeks after treatment; for pest or weed control at 11208.5 g/ha / Percent Weed Control SG: 10 lbs/A (11.2 kg/ha) soil drench, vs untreated checks
Method: as §1, with “planted:” for “planted: tall morningglory (Ipomoea purpurea (L.) Roth) (TM), The percent control of the weeds compared to untreated checks was determined two weeks after treatment. TABLE 1 summarizes the results achieved with compounds formulated as indicated above, and the data clearly indicate the good to excellent herbicidal efficacy of compositions of this invention.”
switchgrass (Panicum virgahim L.) (SG),
as §2

[7] = Sida spinosa, 336 h, 10 lbs/A (11.2 kg/ha) soil drench, vs untreated checks, read-out: Percent Weed Control PS
[8] = Setaria, 336 h, 10 lbs/A (11.2 kg/ha) soil drench, vs untreated checks, read-out: Percent Weed Control GF
[9] = Echinochloa crus-galli, 336 h, 10 lbs/A (11.2 kg/ha) soil drench, vs untreated checks, read-out: Percent Weed Control BG
[10] = Panicum, 336 h, read-out: Percent Weed Control SG
[11] = 10 lbs/A (11.2 kg/ha) soil drench, vs untreated checks
[12] = 5 lbs/A (footnote for 32 and 33)

| SMILES | pest or weed control at 11208.5 g/ha [1] [%] | pest or weed control at 11208.5 g/ha [2, 7] [%] | pest or weed control at 11208.5 g/ha [3, 8] [%] | pest or weed control at 11208.5 g/ha [4] [%] | pest or weed control at 11208.5 g/ha [5, 9] [%] | pest or weed control at 11208.5 g/ha [6, 10] [%] | further results |
| --- | --- | --- | --- | --- | --- | --- | --- |
| FC(F)(F)C1=NC(C(F)(F)F)(C(F)(F)F)N=C(c2ccccc2)O1 [Compound 1, 2-phenyl-4,4,6-tris(trifluoromethyl)-4H-1,3,5-oxadiazine] | 100 | 100 | 0 | 100 | 0 | 0 |  |
| FC(F)(F)C1=NC(C(F)(F)F)(C(F)(F)F)N=C(c2ccc(Br)cc2)O1 [Compound 2, 2-(4-bromophenyl)-4,4,6-tris(trifluoromethyl)-4H-1,3,5-oxadiazine] | 100 | 100 | 100 | 100 | 100 | 100 |  |
| Fc1ccccc1C1=NC(C(F)(F)F)(C(F)(F)F)N=C(C(F)(F)F)O1 [Compound 3, 2-(2-fluorophenyl)-4,4,6-tris(trifluoromethyl)-4H-1,3,5-oxadiazine] | 0 | 0 | 40 | 100 | 0 | 30 |  |
| FC(F)(F)C1=NC(C(F)(F)F)(C(F)(F)F)N=C(c2cccc(C(F)(F)F)c2)O1 [Compound 7, 2,4,4-tris(trifluoromethyl)-6-{(3-trifluoromethyl)phenyl}-4H-1,3,5-oxadiazine] |  |  |  |  |  |  | Percent Weed Control TM [1]: 100%; Percent Weed Control PS [2, 11]: 100%; Percent Weed Control GF [3, 11]: 100%; Percent Weed Control VL [4]: 100%; Percent Weed Control BG [5, 11]: 100%; Percent Weed Control SG [6]: 100% |
| FC(F)(F)Oc1ccc(C2=NC(C(F)(F)F)(C(F)(F)F)N=C(C(F)(F)F)O2)cc1 [Compound 8, 2-{4-(trifluoromethoxy)phenyl}-4,4,6-tris(trifluoromethyl)-4H-1,3,5-oxadiazine] | 100 | 100 | 100 | 100 | 100 | 100 |  |
| Nc1ccc(C2=NC(C(F)(F)F)(C(F)(F)F)N=C(C(F)(F)F)O2)cc1 [Compound 9, 2-(4-aminophenyl)-4,4,6-tris(trifluoromethyl)-4H-1,3,5-oxadiazine] | 0 | 0 | 90 | 90 | 0 | 90 |  |
| O=[N+]([O-])c1ccc(C2=NC(C(F)(F)F)(C(F)(F)F)N=C(C(F)(F)F)O2)cc1 [Compound 10, 2-(4-nitrophenyl)-4,4,6-tris(trifluoromethyl)-4H-1,3,5-oxadiazine] | 50 | 80 | 80 | 80 | 80 | 80 |  |
| FC(F)(F)C(F)(F)C1=NC(C(F)(F)F)(C(F)(F)F)N=C(c2ccccc2)O1 [Compound 11, 2-(pentafluoroethyl)-6-phenyl-4,4-bis(trifluoromethyl)-4H-1,3,5-oxadiazine] | 100 | 100 | 50 | 100 | 0 | 0 |  |
| FC(F)(F)c1ccc(C2=NC(C(F)(F)F)(C(F)(F)F)N=C(C(F)(F)C(F)(F)F)O2)cc1 [Compound 15] |  |  |  |  |  |  | Percent Weed Control TM [1]: 100%; Percent Weed Control PS [2, 11]: 100%; Percent Weed Control GF [3, 11]: 100%; Percent Weed Control VL [4]: 100%; Percent Weed Control BG [5, 11]: 100%; Percent Weed Control SG [6]: 100% |
| Fc1ccc(C2=NC(C(F)(F)F)(C(F)(F)F)N=C(C(F)(F)C(F)(F)F)O2)cc1 [Compound 17, 2-(4-fluorophenyl)-6-(pentafluoroethyl)-4,4-bis(trifluoromethyl)-4H-1,3,5-oxadiazine] | 100 | 100 | 50 | 100 | 100 | 50 |  |
| O=Cc1ccc(C2=NC(C(F)(F)F)(C(F)(F)F)N=C(C(F)(F)C(F)(F)F)O2)cc1 [Compound 31, 4-{6-(pentafluoroethyl)-4,4-bis(trifluoromethyl)-4H-1,3,5-oxadiazin-2-yl}-benzaldehyde] |  |  |  |  | 100 |  |  |
| FC(F)C1=NC(C(F)(F)F)(C(F)(F)F)N=C(c2cccc(C(F)(F)F)c2)O1 [Compound 32, 2-(difluoromethyl)-4,4-bis(trifluoromethyl)-6-(3-trifluoromethylphenyl)-4H-1,3,5-oxadiazine] |  |  |  |  |  |  | pest or weed control at 5604.25 g/ha ([2]; Sida spinosa, pre-emergence, 336 h, 5 lbs/A (footnote for 32 and 33), read-out: Percent Weed Control PS): 100%; pest or weed control at 5604.25 g/ha ([3]; Setaria, pre-emergence, 336 h, 5 lbs/A (footnote for 32 and 33), read-out: Percent Weed Control GF): 100%; pest or weed control at 5604.25 g/ha ([5]; Echinochloa crus-galli, pre-emergence, 336 h, 5 lbs/A (footnote for 32 and 33), read-out: Percent Weed Control BG): 80%; pest or weed control at 5604.25 g/ha ([6]; Panicum, pre-emergence, 336 h, 5 lbs/A (footnote for 32 and 33), read-out: Percent Weed Control SG): 0% |
| FC(F)C1=NC(C(F)(F)F)(C(F)(F)F)N=C(c2ccc(C(F)(F)F)cc2)O1 [Compound 33, 21-(dfluoromethyl)-4,4-bis(trifluoromethyl)-6-(4-trifluoromethylphenyl)-4H-1,3,5-oxadiazine] |  |  |  |  |  |  | Percent Weed Control PS [2, 12]: 100%; Percent Weed Control GF [3, 12]: 40%; Percent Weed Control BG [5, 12]: 20% |
